Columns and labels:
pig bladder tissue [1] = assay: Uptake of docetaxel or paclitaxel into pig bladder tissue from EGCG or tannic acid solutions (Franz cells); format: in vitro ADME; conditions: drug 200 microg/ml in EGCG or tannic acid at 50 mg/ml, urothelial side, 2 hours
Protocol: Methods: Fresh ex vivo pig bladders were cut into 2 cm diameter pieces and laid on franz diffusions cells. […] The solutions were then made up in tyrodes buffer pH 7.4 and 400 ul was placed on the urothelial side of the tissue for 2 hours. The tissues were then frozen and cryosectioned for radioactivity counting by liquid scintillation methods.

pig bladder tissue [2] = assay: Uptake of paclitaxel or docetaxel into pig bladder tissue from triblock or diblock copolymer-MEPEG pastes; format: in vitro ADME; conditions: EGCG or tannic acid loaded triblock copolymer paste, perivesicular side, 2 hours
Text: Methods: Fresh ex vivo pigs bladders were cut into 2 cm diameter pieces and laid on franz diffusions cells. […] The synthesis of the diblock copolymer is described in example X and is composed of a MEPEG molecule of 2000 molecular weight with polylactic acid at a molecular weight of 1330. The triblock copolymer was synthesized in house and has a composition of 35/35/30 (polycaprolactone, polylactic acid, polyethylene glycol with a total molecular weight of 4600. The triblock was synthesized by heating a mixture of caprolactone (Sigma chemicals) lactic acid (Polysciences) and Polyethylene glycol (Sigma molecular weight 1380) to 120° C. under nitrogen overnight followed by cooling and washing in hexane or cold ethanol. 100 mg of paste was applied to the perivascular side of the bladder tissue and 200 ul of tyrodes buffer pH 7.4 was added. The tissue was incubated for 2 hours at 37° C. and then the diffusion cell was disassembled, the tissue was washed free of remaining paste with excess tyrodes and the tissues were then frozen and cryosectioned for radioactivity counting by liquid scintillation methods.

pig skin = test system: pig skin
Protocol: Various gallate-containing drug formulations were prepared and applied to ex vivo pig skin samples. Fresh pig skin was obtained from a local butcher, processed within three hours and then frozen. For experiments, the skin was slowly thawed, excess fat removed from the base, and cut into 1×2 cm squares. These squares were mounted and clamped on Franz diffusion cells, which kept the tissue moist and isolated and exposed a 6 mm diameter of the upper skin surface for the application of a drug loaded formulation. Skin samples were then frozen and later cryosectioned in 50 μm slices. The drug in the slices was extracted and measured by HPLC or radioactive doping methods. A drug depth profile was then established for each drug.
1. Formulations containing a drug and a gallate. The drugs were dissolved in ethanol at various concentrations along with either EGCG or TA (500 mg/mL). Each solution was pipetted into 6×5 mm diameter aluminum cups (approximately 3 mm in height) by filling and allowing the ethanol to evaporate at 50° C. until all the solution was used up (80 mg per cup).
2. Formulations containing a drug, propylene glycol (“PG”) and a gallate. 300 mg of propylene glycol was mixed with 200 mg of EGCG or TA until dissolved. Various amounts of drug were added to this mixture and dissolved. 80 mg of the resulting viscous solution was weighed into 6×5 mm aluminum cups.
3. Control Formulations. Control formulations were prepared using Glaxal base and Plogel. Glaxal base is a cream used by compounding pharmacists to manufacture topical formulations of drugs. Plogel is an alternative used for dermal formulations. […] Drug was added to a known weight of Glaxal or Plogel and levigated to produce a standard drug dispersion. These formulations were prepared the evening before the experiment. For some drugs, radioactive drug (where available) was also added as a doping additive to facilitate quantitation in tissues.
Eutectics: In some cases, gallate containing compounds and drugs were formulated in eutectic mixtures. These included a 60:40 (% w/w) mixture of menthol with ibuprofen. These agents acted as a carrier for retinoic acid, which was then dissolved in this liquid. The 3-drug eutectic/solution was then blended into the CMC/poloxamer emulsion containing EGCG (2.5%). […] The emulsion was stabilized with poloxamer.
Example 29. Pig skin studies. Aluminum cups containing drug formulations were inverted on top of the pig skin in the Franz diffusion cell so that the formulation contents were in contact with the skin. […]
Analysis. […] The amount of drug in each group of skin sections was then determined using HPLC methods, or by radioactivity counting on a liquid scintillation counter. The amount of drug in each group of skin sections was expressed as μg/g or mg/g of tissue.

[3] = Drug release from injectable PG:gallate pastes (60:40) into PBS; format: physicochemical; conditions: 60:40 PG:EGCG or PG:tannic acid, 2% w/w drug, PBS pH 7.4, 37° C.
Protocol: Methods: 60:40% w/w PG:EGCG or PG:tannic acid was used in these studies. 588 mg of propylene glycol was weighed into a 20 mL glass vials and 392 of EGCG or tannic acid was added followed by vortexing to distribute and dissolve the gallates. The vials were warmed to 60° C. and vortexed until all the contents were in solution. At this time 20 mg of drug was added (2% w/w) and vortexed until in solution. The following drugs were used: paclitaxel, docetaxel, retinoic acid, amphotericin B, and curcumin. 100 mg of each paste was weighed into the base of a 15 mL glass test tube and 10 mL of phosphate buffered saline was added at pH 7.4 and the tubes were incubated at 37° C. for certain times. All 10 mL of the PBS release media was removed and 1 mL analyzed by HPLC for drug content. 10 mL of fresh PBS was then added to all tubes

mdck-mdr cells = assay: Uptake of paclitaxel into drug resistant mdck-mdr cells with or without EGCG; format: cell-based, canine

Row | Structure (SMILES) | drug penetration through bladder tissue (pig bladder tissue [1]) | penetration into the bladder tissue (pig bladder tissue [2]) | drug uptake by pig skin relative to controls (pig skin) | drug release from PG:gallate paste [3] | paclitaxel level in cells (mdck-mdr cells; co-incubated with EGCG at 50 microg/ml) | paclitaxel level in cells (mdck-mdr cells; paclitaxel alone) | increase in drug uptake with EGCG (mdck-mdr cells; with EGCG versus alone) | drug uptake by pig skin (pig skin)
1 | CC(=O)O[C@@]12CO[C@@H]1C[C@H](O)[C@@]1(C)C(=O)[C@H](O)C3=C(C)[C@@H](OC(=O)[C@H](O)[C@@H](NC(=O)OC(C)(C)C)c4ccccc4)C[C@@](O)([C@@H](OC(=O)c4ccccc4)[C@H]21)C3(C)C [docetaxel] | high levels of drug penetration | allowed for the penetration | higher levels of uptake as compared to the control formulations | relatively controlled release of the drug over 24 hours |  |  |  | 
2 | CC(=O)O[C@H]1C(=O)[C@@]2(C)[C@H]([C@H](OC(=O)c3ccccc3)[C@]3(O)C[C@H](OC(=O)[C@H](O)[C@@H](NC(=O)c4ccccc4)c4ccccc4)C(C)=C1C3(C)C)[C@]1(OC(C)=O)CO[C@@H]1C[C@@H]2O [paclitaxel] | high levels of drug penetration | allowed for the penetration |  | relatively controlled release of the drug over 24 hours | ≤ 2000 pg/mg | < 200 pg/mg cellular protein | 10 fold | low levels of drug uptake

Reference: patent US11707557B2, “Compositions and devices incorporating water-insoluble therapeutic agents and methods of the use thereof” (COOK MEDICAL TECHNOLOGIES LLC, priority 2014, dated 2023)
